According to paper PMC8961646, “Fibroblast Activation Protein Specific Optical Imaging in Non-Small Cell Lung Cancer” (Frontiers in Oncology, 2022):
Non-standard residues stand in square brackets, D forms with d. Residues, ends and D or L forms follow the SMILES beside them. *: point of attachment. 5FAM = O=C1OC2(c3ccc(O)cc3Oc3cc(O)ccc32)c2ccc(C(=O)*)cc21; MethylRed = CN(C)c1ccc(/N=N/c2ccccc2C(=O)*)cc1; AEEA = NCCOCCOCC(=O)O

How the values were obtained:
MMP 13 = MMP 13 (Homo sapiens, UniProt P45452); experiment: Probe assessment against recombinant MMP panel; type: biochemical; settings: recombinant enzyme, n=2 run in triplicate
[1] = system: NSCLC patient tissue samples; experiment: Fluorescence intensity and lifetime imaging (FLIM) of ex vivo NSCLC tissue; parameters: species or system human; settings: FAP3 5 µM, ex vivo NSCLC samples N=5, imaged at 10-minute intervals to 40 minutes, 488 nm excitation
Description: For imaging solutions, varying concentrations of rhFAP were prepared in blackened eppendorfs and FAP3 to a final concentration of 5µM added and imaged as below. For biological specimens, NSCLC patient tissue samples from surgical resection were used fresh or snap frozen and stored at -80°C until required. Small fragments (approx. 4mm^3) incubated at 37°C in a 96 well plate in phenyl-red free DMEM (Gibco) containing 10% FCS, 1% Penicillin-streptomycin and 1% L-Glutamine. For the tissue fragments to be used as inhibitor controls, we added Talabostat at a dilution of 1:1000. Samples were then imaged using a clinically approved fluorescence lifetime imaging system used in conjunction with an imaging fibre ([30]) providing a 400 x 400 µm field of view. The imaging system incorporates a pulsed supercontinuum laser source, in this case tuned for excitation at 488 nm, with an achromatic confocal laser scanning system and a time-resolved spectrometer. This spectrometer contains a 512 channel single photon avalanche diode (SPAD) sensor ([31]) allowing for the rapid collection of time resolved spectral fluorescence lifetime data. Fluorescence intensity and lifetime images were collected using an image resolution of 160 x 160 pixels over a 498 – 570 nm spectral range with an exposure time of 13 µs per pixel. This led to an imaging rate of ~3 frames per second.
For each condition, the tumour samples were imaged using a fibre placed at the surface of the tissue (baseline), and then again at 10-minute intervals following the additions of equimolar concentrations of probe +/- Inhibitor. For imaging solutions, the fibre was held within the solution and imaged every 5 minutes. Each condition and time-point data for both fluorescence intensity and lifetime were collected. Imaging sequences had non-relevant frames removed, and the entire field of view was analysed. Analysis was undertaken using a bespoke software suite utilising the rapid lifetime determination (RLD) method ([32]). […]

[2] = Probe stability in activated neutrophil lysate
Description: Assays were undertaken in triplicate in blackened 384 well plates on ice prior to spectral reads.
Neutrophils were isolated from peripheral blood of healthy volunteers by discontinuous percoll gradients, as previously described ([29]). Cells were resuspended in PBS (at 10 million cells/ml) and stimulated with 1 µM calcium ionophore, then lysed with 1% Triton-X-100. Lysate was used at 1:1 dilution for experiments, replacing recombinant enzymes in the assay as described above, with PBS as the buffer.
MALDI spectra were acquired on a Bruker Ultraflextreme MALDI-TOF MS. Neutrophil lysate experiment samples were prepared by plating 1 µl of the sample with 1 µl of the matrix solution sinapic acid (10 mg/mL) in H2O/CH3CN/TFA (70/30/0.1).

SMILES: CC(C)[C@H](NC(=O)[C@@H](N)CCCCNC(=O)c1ccccc1/N=N/c1ccc(N(C)C)cc1)C(=O)N[C@H](CO)C(=O)N1CCC[C@H]1C(=O)N[C@@H](CC(N)=O)C(=O)N[C@@H](CCC(N)=O)C(=O)NCC(=O)N[C@@H](CCCCNC(=O)c1ccc2c(c1)C(=O)OC21c2ccc(O)cc2Oc2cc(O)ccc21)C(=O)NCCOCCOCC(=O)N[C@H](CCCCN)C(=O)NCCOCCOCC(=O)N[C@H](CCCCN)C(=O)NCCOCCOCC(=O)N[C@H](CCCCN)C(N)=O [FAP3] (H-K(MethylRed)V[dS]PNQGK(5FAM)[AEEA][dK][AEEA][dK][AEEA][dK]-NH2)
- Activity with MMP 13 (MMP 13): no activity
- Change in fluorescence intensity in NSCLC tissue ([1]; 37°C): increase in fluorescence intensity
- Change in fluorescence lifetime in NSCLC tissue ([1]; RLD method): change to a longer lifetime signature
- Stability in activated neutrophil lysate (MALDI-TOF) ([2]; activated human neutrophil lysate, MALDI-TOF read-out, sinapic acid matrix): remained intact
- Stability in activated neutrophil lysate (fluorescence) ([2]; human neutrophils 10 million cells/ml, 1 µM calcium ionophore, lysed with 1% Triton-X-100, lysate at 1:1 dilution, PBS, fluorescence 480/530 nm, n=2 run in triplicate): stable
